Laboratory results: ChEMBL document CHEMBL5634090, “Design of phenothiazine-based cationic amphiphilic derivatives incorporating arginine residues: Potential membrane-active broad-spectrum antimicrobials combating pathogenic bacteria in vitro and in vivo” (Eur J Med Chem, 2023)
≈ marks a conversion by molar mass, not a printed value.

What was measured:
Klebsiella pneumoniae [1] = experiment: Antibacterial activity against Klebsiella pneumoniae ATCC 10031 assessed as log reduction in bacterial load at 8 times MIC measured after 2 hrs by time kill assay; type: functional
Staphylococcus aureus [2] = experiment: Antibacterial activity against Staphylococcus aureus ATCC 29213 in presence of 2.5 mmol/L Ca2+ by broth microdilution method; type: functional
Staphylococcus aureus [3] = experiment: Inhibition of biofilm formation in Staphylococcus aureus ATCC 29213 at 0.39 ug/ml by crystal violet staining assay relative to control; type: functional
[4] = Selectivity index, ratio of CC50 for cytotoxicity against HEK293 cells to MIC for antibacterial activity against Klebsiella pneumoniae ATCC 14581; type: toxicity, cell-based; conditions: human, read-out: Selectivity Index
Staphylococcus aureus [5] = experiment: Antibacterial activity against methicillin resistant Staphylococcus aureus N315 in presence of 1 mmol/L Mg2+ by broth microdilution method; type: functional
Klebsiella pneumoniae [6] = experiment: Antibacterial activity against Klebsiella pneumoniae ATCC 10031 in presence of 20 umol/L Fe3+ by broth microdilution method; type: functional
Staphylococcus aureus [7] = experiment: Antibacterial activity against methicillin resistant Staphylococcus aureus NCTC 10442 in presence of 2.5 mmol/L Ca2+ by broth microdilution method; type: functional
Klebsiella pneumoniae [8] = experiment: Inhibition of biofilm formation in Klebsiella pneumoniae ATCC 10031 at 3.125 ug/ml by crystal violet staining assay relative to control; type: functional
Klebsiella pneumoniae [9] = experiment: Inhibition of biofilm formation in Klebsiella pneumoniae ATCC 10031 by crystal violet staining assay; type: functional, organism-based; conditions: dose 0.78-25 µg/ml
Klebsiella pneumoniae [10] = experiment: Antibacterial activity against Klebsiella pneumoniae ATCC 14581 in presence of 4.5 mmol/L K+ by broth microdilution method; type: functional
[11] = Cytotoxicity against mouse NCTC clone 929 cells assessed as cell survival rate at 50 ug/ml by CCK-8 assay relative to control; type: toxicity, cell-based; conditions: NCTC clone 929 (L929) cells, at 50 µg/mL, read-out: Activity
Escherichia coli [12] = experiment: Antibacterial activity against Escherichia coli ATCC 25922 by microbroth dilution assay; type: functional
Staphylococcus aureus [13] = experiment: Antibacterial activity against Staphylococcus aureus ATCC 29213 in presence of 140 mmol/L Na+ by broth microdilution method; type: functional
Pseudomonas aeruginosa [14] = experiment: Antibacterial activity against Pseudomonas aeruginosa ATCC 9027 infected in cyclophosphamide immunosuppressed keratitis mouse model assessed as log reduction in number of viable bacterial colonies at 10 mg/ml administrated tropically; type: functional
Escherichia coli [15] = experiment: Antibacterial activity against Escherichia coli ATCC 25922 in presence of 140 mmol/L Na+ by broth microdilution method; type: functional
Klebsiella pneumoniae [16] = experiment: Antibiofilm activity against 24 hrs preformed biofilm in Klebsiella pneumoniae ATCC 10031 assessed as reduction in biofilm viability at 0.78 ug/ml relative to control; type: functional; conditions: dose 0.78 µg/ml
Klebsiella pneumoniae [17] = experiment: Antibacterial activity against Klebsiella pneumoniae ATCC 10031 in presence of 4.5 mmol/L K+ by broth microdilution method; type: functional
Staphylococcus aureus [18] = experiment: Antibiofilm activity against 24 hrs preformed biofilm in Staphylococcus aureus ATCC 29213 assessed as reduction in biofilm viability at 0.39 ug/ml relative to control; type: functional; conditions: dose 0.39 µg/ml
Klebsiella pneumoniae [19] = experiment: Antibacterial activity against Klebsiella pneumoniae ATCC 14581 by microbroth dilution assay; type: functional
Staphylococcus aureus [20] = experiment: Antibacterial activity against methicillin resistant Staphylococcus aureus NCTC 10442 by microbroth dilution assay; type: functional
Klebsiella pneumoniae [21] = experiment: Antibacterial activity against Klebsiella pneumoniae ATCC 14581 in presence of 19 umol/L Zn2+ by broth microdilution method; type: functional
[22] = Cytotoxicity against HEK293 cells assessed as cell survival rate at 12.5 ug/ml by CCK-8 assay relative to control; type: toxicity, cell-based; conditions: human, at 12.5 µg/mL, read-out: Activity
Pseudomonas aeruginosa [23] = experiment: Antibacterial activity against Pseudomonas aeruginosa ATCC 9027 in presence of 140 mmol/L Na+ by broth microdilution method; type: functional
Pseudomonas aeruginosa [24] = experiment: Antibacterial activity against Pseudomonas aeruginosa ATCC 9027 in presence of 20 umol/L Fe3+ by broth microdilution method; type: functional
Staphylococcus aureus [25] = experiment: Antibacterial activity against Staphylococcus aureus ATCC 29213 by microbroth dilution assay; type: functional
Klebsiella pneumoniae [26] = experiment: Antibacterial activity against Klebsiella pneumoniae ATCC 10031 assessed as reduction in bacterial load at 4 times MIC measured after 2 hrs by time kill assay relative to control; type: functional; design: scale not given: the % may be the effect or the level left
Klebsiella pneumoniae [27] = experiment: Inhibition of biofilm formation in Klebsiella pneumoniae ATCC 10031 at 0.78 ug/ml by crystal violet staining assay relative to control; type: functional
Klebsiella pneumoniae [28] = experiment: Inhibition of biofilm formation in Klebsiella pneumoniae ATCC 10031 at 12.5 ug/ml by crystal violet staining assay relative to control; type: functional
Staphylococcus aureus [29] = experiment: Inhibition of biofilm formation in Staphylococcus aureus ATCC 29213 at 6.25 ug/ml by crystal violet staining assay relative to control; type: functional
Staphylococcus aureus [30] = experiment: Antibacterial activity against Staphylococcus aureus ATCC 29213 in presence of 4.5 mmol/L K+ by broth microdilution method; type: functional
[31] = Cytotoxicity against mouse NCTC clone 929 cells assessed as cell survival rate at 3.125 ug/ml by CCK-8 assay relative to control; type: toxicity, cell-based; conditions: NCTC clone 929 (L929) cells, at 3.125 µg/mL, read-out: Activity
Klebsiella pneumoniae [32] = experiment: Antibacterial activity against Klebsiella pneumoniae ATCC 14581 in presence of 2.5 mmol/L Ca2+ by broth microdilution method; type: functional
Staphylococcus aureus [33] = experiment: Antibacterial activity against Staphylococcus aureus ATCC 29213 in presence of 20 umol/L Fe2+ by broth microdilution method; type: functional
Staphylococcus aureus [34] = experiment: Antibacterial activity against Staphylococcus aureus ATCC 29213 infected in cyclophosphamide immunosuppressed keratitis mouse model assessed as log reduction in number of viable bacterial colonies at 10 mg/ml administrated tropically; type: functional
Staphylococcus aureus [35] = experiment: Antibacterial activity against methicillin resistant Staphylococcus aureus NCTC 10442 in presence of 1 mmol/L Mg2+ by broth microdilution method; type: functional
Staphylococcus aureus [36] = experiment: Antibacterial activity against Staphylococcus aureus ATCC 29213 assessed as cell membrane disruption by SYTOX Green assay; type: functional, organism-based
Klebsiella pneumoniae [37] = experiment: Antibacterial activity against Klebsiella pneumoniae ATCC 10031 assessed as log reduction in bacterial load at 4 times MIC measured after 2 hrs by time kill assay; type: functional
Pseudomonas aeruginosa [38] = experiment: Antibacterial activity against Pseudomonas aeruginosa ATCC 9027 in presence of 19 umol/L Zn2+ by broth microdilution method; type: functional
Pseudomonas aeruginosa [39] = experiment: Antibacterial activity against Pseudomonas aeruginosa ATCC 9027 in presence of 19 umol/L Fe2+ by broth microdilution method; type: functional
Klebsiella pneumoniae [40] = experiment: Antibacterial activity against Klebsiella pneumoniae ATCC 14581 in presence of 140 mmol/L Na+ by broth microdilution method; type: functional
Staphylococcus aureus [41] = experiment: Antibacterial activity against methicillin resistant Staphylococcus aureus NCTC 10442 in presence of 20 umol/L Fe2+ by broth microdilution method; type: functional
Klebsiella pneumoniae [42] = experiment: Antibacterial activity against Klebsiella pneumoniae ATCC 10031 in presence of 140 mmol/L Na+ by broth microdilution method; type: functional
Klebsiella pneumoniae [43] = experiment: Antibacterial activity against Klebsiella pneumoniae ATCC 10031 by microbroth dilution assay; type: functional

SMILES: CCCCCCCN1c2ccccc2Sc2ccc(OCC(=O)N[C@@H](CCCNC(=N)N)C(=O)N[C@@H](CCCNC(=N)N)C(N)=O)cc21
- log(activity) (Klebsiella pneumoniae [1]): >3
- MIC (Staphylococcus aureus [2]): 3.12 µg/mL
- inhibition at 0.39 µg/mL (Staphylococcus aureus [3]): 5.85%
- selectivity ratio [4]: 8
- MIC (Staphylococcus aureus [5]): 1.56 µg/mL
- MIC (Klebsiella pneumoniae [6]): 6.25 µg/mL
- MIC (Staphylococcus aureus [7]): 3.12 µg/mL
- inhibition at 3.125 µg/mL (Klebsiella pneumoniae [8]): 73.8%
- inhibition (Klebsiella pneumoniae [9]): Dose-Dependent Effect
- MIC (Klebsiella pneumoniae [10]): 3.12 µg/mL
- viability at 50 ug/ml [11]: 68.1%
- MIC (Escherichia coli [12]): 3.12 µg/mL (≈ 4.58 µM)
- MIC (Staphylococcus aureus [13]): 1.56 µg/mL
- log(activity) (Pseudomonas aeruginosa [14]): 5.93
- MIC (Escherichia coli [15]): 3.12 µg/mL
- Activity (Klebsiella pneumoniae [16]): 82.83%
- MIC (Klebsiella pneumoniae [17]): 3.12 µg/mL
- Activity (Staphylococcus aureus [18]): 97.35%
- MIC (Klebsiella pneumoniae [19]): 3.12 µg/mL (≈ 4.58 µM)
- MIC (Staphylococcus aureus [20]): 1.56 µg/mL (≈ 2.28 µM)
- MIC (Klebsiella pneumoniae [21]): 3.12 µg/mL
- viability at 12.5 ug/ml [22]: 80.6%
- MIC (Pseudomonas aeruginosa [23]): 6.25 µg/mL
- MIC (Pseudomonas aeruginosa [24]): 6.25 µg/mL
- MIC (Staphylococcus aureus [25]): 1.56 µg/mL (≈ 2.28 µM)
- Activity (Klebsiella pneumoniae [26]): >99.9%
- inhibition at 0.78 µg/mL (Klebsiella pneumoniae [27]): 27.1%
- inhibition at 12.5 µg/mL (Klebsiella pneumoniae [28]): 93.9%
- inhibition at 6.25 µg/mL (Staphylococcus aureus [29]): 95.1%
- MIC (Staphylococcus aureus [30]): 1.56 µg/mL
- viability at 3.125 ug/ml [31]: 97.9%
- MIC (Klebsiella pneumoniae [32]): 3.12 µg/mL
- MIC (Staphylococcus aureus [33]): 1.56 µg/mL
- log(activity) (Staphylococcus aureus [34]): 5.28
- MIC (Staphylococcus aureus [35]): 3.12 µg/mL
- Activity (Staphylococcus aureus [36]): Dose-Dependent Effect
- log(activity) (Klebsiella pneumoniae [37]): >3
- MIC (Pseudomonas aeruginosa [38]): 3.12 µg/mL
- MIC (Pseudomonas aeruginosa [39]): 6.25 µg/mL
- MIC (Klebsiella pneumoniae [40]): 3.12 µg/mL
- MIC (Staphylococcus aureus [41]): 1.56 µg/mL
- MIC (Klebsiella pneumoniae [42]): 3.12 µg/mL
- MIC (Klebsiella pneumoniae [43]): 3.12 µg/mL (≈ 4.58 µM)
